{
  "source": "patent US20210177824A1",
  "about": "“EXTENDED RELEASE FORMULATIONS FOR INTRA-ARTICULAR APPLICATIONS” (NOVARTIS AG, priority 2017, published 2021)",
  "type_in_all_cases": "physicochemical",
  "key": {"[1]": {"assay": "pKa of Compound A", "conditions": "weakly basic", "from_the_text": "(§1) Compound A can be formulated as immediate release formulations for intra-articular injection. However, due to a high fluid exchange between the synovial fluid and the blood stream, immediate release formulations have a short synovial residence half-life and require frequent injections."}, "[2]": {"assay": "Aqueous solubility of Compound A as a function of pH", "from_the_text": "as §1"}, "[3]": {"assay": "Particle size and surface area of micronized Compound A micro-crystals", "from_the_text": "Compound A can be micronized using any methods known to those skilled in the art. Un-milled Compound A is subjected to a size reduction process to obtain particle size. The size reduction of Compound A can be performed using any known methods such as by jet-milling technology, and more particularly, by spiral jet-milling technology, fluidized bed opposed jet-milling technology or loop jet-milling technology.\nIn yet other embodiments, Compound A was micronized to form micro-crystals with maximal particle diameters characterized in Table 1."}},
  "data": [
    {"smiles": "O=C(Nc1ccc(Cl)c(Cl)c1)[C@@H]1[C@@H](c2ccncc2)[C@@H]2CC[C@H]1O2", "note": "[Compound A, N-(3,4-dichlorophenyl)-3-(pyridin-4-yl)-7-oxabicyclo[2.2.1] heptane-2-carboxamide]", "values": [
      {"measurement": "pKa", "setting": "[1]", "value": 5.2},
      {"measurement": "pH dependence of solubility", "setting": "[2]", "value": "Solubility increases with decreasing pH"},
      {"measurement": "Solubility in neutral pH and basic pH aqueous solutions", "setting": "[2]; neutral and basic pH", "value": "poorly soluble"},
      {"measurement": "Particle size: D10", "setting": "[3]", "value": "≤1.4", "unit": "μm"},
      {"measurement": "Particle size: D50", "setting": "[3]", "value": "≤6.1", "unit": "μm"},
      {"measurement": "Particle size: D90", "setting": "[3]", "value": "≤29.7", "unit": "μm"},
      {"measurement": "Surface area", "setting": "[3]", "value": 3, "unit": "m^2/g"}
    ]}
  ]
}
